Test results from patent US20170315129A1, “CANCER CELL DETECTION METHOD USING LIVING BODY-DERIVED CELLS OF BIOLOGICAL ORIGIN” (Hirosaki University, priority 2014, published 2017).
“Also recorded” adds a separate entry of the source.

Assays:
[1] = tested on: ascites cells obtained during an operation of a patient with endometrial cancer (endometrioid adenocarcinoma); experiment: Live-cell fluorescence imaging of ascites cells, endometrial cancer patient, with later Papanicolaou staining (Example 2); type: cell-based, human
Protocol: Immediately after the start of laparotomy for endometrial cancer (endometrioid adenocarcinoma), the peritoneal cavity was washed with physiological saline in the same manner as in Example 1 to obtain a peritoneal washing, which was then added to a 50 mL centrifuge tube having 5 mL of the Hanks solution in advance. The resulting ascitic fluid suspension was centrifuged at […] for 2 minutes at room temperature, and the supernatant was removed by decantation. Subsequently, 30 mL of a commercially available solution of ammonium chloride for hemolysis was added, and allowed to stand for 2 minutes, and then centrifuged at 1500 G for 2 minutes at room temperature, and the supernatant was then removed by decantation. Some of the resulting pellet was set aside for cytodiagnosis tests at the hospital's pathology department, and the rest was further divided into 2 portions, each of which was dispersed into 40 mL of a KRB solution in 50 mL centrifuge tubes, and stored at room temperature an a dark place until application of fLG on the next day. […]
Observation and image acquisition were performed about 22 hours after obtaining ascites cells using the same instruments as in Example 1. […] Subsequently, a bright-field image and fluorescence images of the target cells were obtained using a high-power lens, and positional information on the stage was registered using a software dedicated for BZ-X700. […]

glucose transporter GLUT = conditions: cited from earlier work
[2] = tested on: ascites cells obtained during an operation of a patient with ovarian cancer (serous adenocarcinoma); experiment: Live-cell fluorescence imaging by the perfusion method, original ascites cells, ovarian cancer patient (Example 4); type: cell-based, human; conditions: cancer cell cluster; perfusion 100 μM 2-NBDLG and 20 μM 2-TRLG for 5 minutes, imaged 10 minutes after switch to KRB; FIG. 7A/7B, 8D
Protocol: A surplus portion of the original ascitic fluid taken from the peritoneal cavity immediately after the start of laparotomy for ovarian cancer (serous adenocarcinoma) was added to a 50 mL centrifuge tube having 5 mL of the Hanks solution in advance. The obtained ascitic fluid suspension was checked for presence of fibrin with a toothpick, and then passed through a mesh to remove fat and impurities. Next, it was evenly dispensed into two 50 mL centrifuge tubes, and centrifuged at 1500 G for 2 minutes at room temperature. The supernatant of each of the two centrifuge tubes was then gently removed from the liquid surface down to 7.5 mL with an electric pipette, and then the rest was further removed with a dropper to leave 1 mL. The sedimented layer containing red blood cells and the like were present at the bottom of the centrifuge tube. A 1 mL portion was collected from the upper surface with a dropper without aspirating red blood cells from the sedimented layer to obtain an ascites cell suspension. • (2) Adhesion of Ascites Cells on Glass Plate by Centrifugation, and Method of Maintaining Cell Viability
The ascites cells were allowed to attach on a glass plate using a commercially available automated cell collecting system CF-12D (Sakura Finetek Japan Co., Ltd.). […]

cultured cells = conditions: 2-TRLG and 2-NBDLG applied together to cultured cells; cited from earlier work

Question: Which results are given for `O=C[C@@H](Nc1ccc([N+](=O)[O-])c2nonc12)[C@H](O)[C@@H](O)[C@@H](O)CO` [2-NBDLG, 2-[N-(7-nitrobenz-2-oxa-1,3-diazole-4-yl)amino]-2-deoxy-L-glucose]?
Answer: intracellular localisation of 2-NBDLG uptake ([1]; Cluster 1, FIG. 4A): taken up into the cytoplasmic portion except for the nucleus; fluorescence from 2-NBDLG (green wavelength region) ([1]; two cancer-cell clusters (left cluster and Cluster 1), 100 μM 2-NBDLG and 20 μM 2TRLG, fLG applied about 20 hours after sampling, FIG. 3B, 4D): show fluorescence; also recorded: positive; binding to glucose transporter GLUT (glucose transporter GLUT): does not bind; fluorescence from 2-NBDLG (green wavelength region), after vs before application of fLG [2]: shows fluorescence; also recorded: positive; uptake into cells having damaged plasma membranes or showing nonspecific uptake such as phagocytosis (cultured cells): taken up into cells having damaged plasma membranes
